Laboratory results: patent US11850246B2, “Method for treatment of cytokine release syndrome” (NOVMETAPHARMA CO., LTD., priority 2020, dated 2023)

What was measured:
macrophage = assay: Anti-inflammatory effect on LPS-activated macrophage: activation surface markers by flow cytometry; type: cell-based; details: 5 μM compound; macrophage activated with 100 ng/mL LPS; 24 hours after LPS treatment; flow cytometry (FIG. 1A-1C)
Description: Dysregulation of immune activation in innate immune cell is the main factor initiating cytokine release syndrome. Immune regulatory effects of the compound of Chemical Formula 1 on macrophage were assessed employing compound 18a (DMRC200434). 5 μM DMRC200434 was treated on activated macrophage with 100 ng/mL lipopolysaccharide (LPS) (Sigma-Aldrich). 24 hours after LPS treatment, activation markers (CD40, CD80, CD86) were measured by flow cytometry.

[1] = test system: LPS induced endotoxemia model; assay: LPS induced endotoxemia model, survival; type: in vivo, C57BL/6 mice; details: 30 mg/kg injected 24 hours prior to and at start of LPS (50 mg/kg) injection; survival observed for 50 hours (FIG. 2)
Description: 6 to 8-week female C57BL/6 mice (Jackson Lab) were used according to an animal protocol approved by the Institutional Animal Care and Use Committee of Kyungpook National University.
Compound of Chemical Formula 1 (DMRC200434, 30 mg/kg) was dissolved in a solution of 5%—DMSO: 95%—20% PEG400(Saline) and was injected at two points—at 24 hours prior to, and at the start of LPS (50 mg/kg) injection.
The inventors analyzed the efficacy of a compound of Chemical Formula 1 in vivo on LPS-induced endotoxemia model employing DMRC200434. To assess the effect of DMRC200434 on endotoxemia, DMRC200434 was treated on LPS induced endotoxemia model.

CC(C)N1CCN(c2ccc(/C(=C(/CCCO)c3ccccc3)c3ccc(O)cc3)cc2)CC1 [DMRC200434, (E)-5-(4-hydroxyphenyl)-5-(4-(4-isopropylpiperazin-1-yl)phenyl)-4-phenylpent-4-en-1-ol]
expression of inflammatory surface marker CD40 (macrophage): downregulated | expression of inflammatory surface marker CD80 (macrophage): downregulated | expression of inflammatory surface marker CD86 (macrophage): downregulated | endotoxin mediated death (survival) [1]: significantly delayed
